The text below walks through data of patent US20100144712A1 (priority 2007, published 2010).

Values after ≈ are worked out from the molar mass of the structure shown.

Common to all, as to format: cell-based
Experiment [1] concerns Candida albican ATCC MYA-576. Put plainly: In vitro antifungal activity (MIC80), Candida albican ATCC MYA-576. The settings on record: Candida; Table 2, MYA 576; read-out: Minimal inhibitory concentration (MIC80). On the procedure: (§1) In vitro antifungal activities of the inventive antifungal compounds were evaluated using test strains including Candida albican (ATCC 90873, 204276, 62342, 64124, 64550, 96901, MYA-573, MYA-574, MYA-575, MYA-576, MYA-1003) and Aspergillus fumigatus (ATCC 16424). Test samples and positive control samples were prepared by dissolving the inventive compounds and comparative compounds, i.e., amphotericin B, fluconazole and itraconazole, in DMSO, respectively, and each successively diluted with medium to obtain test and positive control solutions having test compound concentrations of 0.125 μg/ml to a maximum concentration not generating turbidity. Minimal inhibitory concentration (MIC80) of each compound was determined as the lowest concentration of the test compounds required to reduce growth by 80% relative to a control strain not treated.
(§2) 1) Test strain: Candida albican ATCC 90873, 204276, 62342, 64124, 64550, 96901, MYA-573, MYA-574, MYA-575, MYA-576, MYA-1003, and Aspergillus fumigatus ATCC 16424 were commercially obtained from The American Type Culture Collection (ATCC) and subcultured in CHEMON Co. Ltd. (amphotericin B was commercially purchased from Sigma, and fluconazole and itraconazole were prepared according to methods described in British Patent No. 2,099,818; and U.S. Pat. No. 4,267,179, respectively).
(§3) 2) Medium and culture condition: Candida albican was cultured in Sabourad Dextrose Agar, YM Agar or Potato Dextrose Agar according to ATCC information at a temperature of 37° C., 35° C., 30° C. or 25° C. Aspergillus fumigatus was cultured in Malt Extract Agar or Potato Dextrose Agar at a temperature ranging from 24 to 27° C.
(§4) 3) Preparation of test samples: the inventive compounds and comparative compounds were each diluted with DMSO to obtain 1 to 2 ml of a test sample in a concentration of 100-folds of the determining maximum concentration (256 μg/ml).
(§5) The test samples were each successively diluted with RPMI 1640 to obtain test solutions having concentrations of […] in a 12×75 mm sterilized disposable culture tube. The final concentration of DMSO was adjusted to […] (v/v).
(§6) 5) Preparation of strain solution and inoculation
(§7) Candida albican strains were each subcultured in Sabourad Dextrose Agar, YM Agar or Potato Dextrose Agar medium at 35° C. for 2˜3 days. In the case of yeasts, a single colony was taken from prominent colonies and suspended in 0.85% sterile physiological saline solution and the turbidity of the suspension was adjusted to 80˜82% at 530 nm, and then diluted 50-fold with RPMI 1640 medium to 1.0×10^3˜5.0×10^3 CFU/ml. The turbidity of fungi was adjusted to 80˜82% and the suspension was diluted 50-fold to […]. Aspergillus fumigatus strains were subcultured in Malt Extract Agar for 7˜10 days, and a single colony was taken from prominent colonies and suspended in 0.85% sterile physiological saline solution and the suspension was adjusted to 0.108 at 530 nm, and then diluted 1000-fold with RPMI 1640 medium to 0.4×10^2˜5×10^4 CFU/ml. The turbidity of fungi was adjusted to 80˜82% and the suspension was diluted 50-fold to 0.4102˜0.5104 CFU/ml.
(§8) The strain solutions thus obtained were each seeded into a sterilized 96-well microplate, 0.1 ml of each test solution were added thereto, and […] of alamarblue was treated to each well (Biosource, #DAL1100). This procedure was repeated 2 times.
(§9) Minimal inhibitory concentration (MIC80) of each compound was determined as the lowest concentration of the test compounds required to reduce growth by 80% relative to a control strain not treated.

The test system of experiment [2] is Candida albican ATCC 64550. Put plainly: In vitro antifungal activity (MIC80), Candida albican ATCC 64550. The settings on record: Candida, ATCC64550; Table 2, 64550; read-out: Minimal inhibitory concentration (MIC80). On the procedure:
as §1, §2, §3, §4, §5, §6, §7, §8, §9

In experiment [3] the test system is Candida albican ATCC MYA-573. The experiment is described as follows: In vitro antifungal activity (MIC80), Candida albican ATCC MYA-573. The following applies: Candida; Table 2, MYA 573; read-out: Minimal inhibitory concentration (MIC80). On the procedure: as §1, §2, §3, §4, §5, §6, §7, §8, §9
The test system of experiment [4] is Candida albican ATCC MYA-574. The experiment is described as follows: In vitro antifungal activity (MIC80), Candida albican ATCC MYA-574. The settings on record: Candida; Table 2, MYA 574; read-out: Minimal inhibitory concentration (MIC80). On the procedure:
as §1, §2, §3, §4, §5, §6, §7, §8, §9

Experiment [5] concerns Candida albican ATCC 90873. Put plainly: In vitro antifungal activity (MIC80), Candida albican ATCC 90873. The following applies: Candida, ATCC90873; Table 2, ATCC 90873; read-out: Minimal inhibitory concentration (MIC80). On the procedure:
as §1, §2, §3, §4, §5, §6, §7, §8, §9

For experiment [6], the system named is Candida albican ATCC 64124. Put plainly: In vitro antifungal activity (MIC80), Candida albican ATCC 64124. The settings on record: Candida, ATCC64124; Table 2, 64124; read-out: Minimal inhibitory concentration (MIC80). On the procedure:
as §1, §2, §3, §4, §5, §6, §7, §8, §9

Experiment [7] deals with Candida albican ATCC 62342. Put plainly: In vitro antifungal activity (MIC80), Candida albican ATCC 62342. The following applies: Candida, ATCC62342; Table 2, 62342; read-out: Minimal inhibitory concentration (MIC80). On the procedure:
as §1, §2, §3, §4, §5, §6, §7, §8, §9

The subject of experiment [8] is Candida albican ATCC 96901. The experiment is described as follows: In vitro antifungal activity (MIC80), Candida albican ATCC 96901. The settings on record: Candida, ATCC96901; Table 2, ATCC 96901; read-out: Minimal inhibitory concentration (MIC80). On the procedure:
as §1, §2, §3, §4, §5, §6, §7, §8, §9

For experiment [9], the system named is Candida albican ATCC MYA-1003. Put plainly: In vitro antifungal activity (MIC80), Candida albican ATCC MYA-1003. The following applies: Candida; Table 2, MYA 1003; read-out: Minimal inhibitory concentration (MIC80). On the procedure: as §1, §2, §3, §4, §5, §6, §7, §8, §9
The test system of experiment [10] is Candida albican ATCC MYA-575. Put plainly: In vitro antifungal activity (MIC80), Candida albican ATCC MYA-575. The settings on record: Candida; Table 2, MYA 575; read-out: Minimal inhibitory concentration (MIC80). On the procedure:
as §1, §2, §3, §4, §5, §6, §7, §8, §9

With `C[C@@H](N1CCN(c2ccc(OCc3ccccc3)nc2)CC1)[C@](O)(Cn1cncn1)c1ccc(F)cc1F` [Example 29, (2R,3R)-3-(4-(6-(benzyloxy)pyridin-3-yl)piperazin-1-yl)-2-(2,4-difluorophenyl)-1-(1H-1,2,4-triazol-1-yl)butan-2-ol], the MIC80 in [1] turned out to be 0.125 µg/mL (≈ 0.24 µM); in [2], 1 µg/mL (≈ 1.92 µM); in experiment [3] it was 1 µg/mL (≈ 1.92 µM); in experiment [4], 1 µg/mL (≈ 1.92 µM); in experiment [5] it was 0.125 µg/mL (≈ 0.24 µM); in experiment [6], 4 µg/mL (≈ 7.68 µM). Also, the MIC80 is 0.5 µg/mL (≈ 0.96 µM) in experiment [7], > 128 µg/mL in experiment [8], > 128 µg/mL in experiment [9] and 0.25 µg/mL (≈ 0.48 µM) in [10].

For the molecule `C[C@@H](N1CCN(c2cccc(N(C)CCc3cccs3)n2)CC1)[C@](O)(Cn1cncn1)c1ccc(F)cc1F` [Example 28, (2R,3R)-2-(2,4-difluorophenyl)-3-(4-(6-(methyl(2-(thiophen-2-yl)ethyl)amino)pyridin-2-yl)piperazin-1-yl)-1-(1H-1,2,4-triazol-1-yl)butan-2-ol], the MIC80 is 1 µg/mL (≈ 1.81 µM) in experiment [1]; > 128 µg/mL in experiment [2]; > 128 µg/mL in [3]; > 128 µg/mL in experiment [4]; 0.25 µg/mL (≈ 0.452 µM) in [5]; > 128 µg/mL in experiment [6]. Besides, the MIC80 in experiment [7] was > 128 µg/mL; in experiment [8] it was > 128 µg/mL; in experiment [9] it was > 128 µg/mL; in [10], 1 µg/mL (≈ 1.81 µM).

As for `C[C@@H](N1CCN(c2nc3ccc(N(C)CCN4CCOCC4)cc3s2)CC1)[C@](O)(Cn1cncn1)c1ccc(F)cc1F` [Example 13, (2R,3R)-3-(4-(6-(N-methyl-N-(2-morpholinoethyl)amino)benzothiazol-2-yl)piperazin-1-yl)-2-(2,4-difluorophenyl)-1-(1H-1,2,4-triazol-1-yl)butan-2-ol], the MIC80 in experiment [1] was 0.125 µg/mL (≈ 0.204 µM); in experiment [2], 0.5 µg/mL (≈ 0.816 µM); in [3] it was 0.25 µg/mL (≈ 0.408 µM); in experiment [4], 16 µg/mL (≈ 26.1 µM); in experiment [5], 0.125 µg/mL (≈ 0.204 µM); in [6] it was 2 µg/mL (≈ 3.26 µM). Besides, the MIC80 came to 0.25 µg/mL (≈ 0.408 µM) in experiment [7], 8 µg/mL (≈ 13.1 µM) in experiment [8], 32 µg/mL (≈ 52.2 µM) in experiment [9] and 0.125 µg/mL (≈ 0.204 µM) in experiment [10].

Regarding `CC(C)Oc1ccc(N2CCN([C@H](C)[C@](O)(Cn3cncn3)c3ccc(F)cc3F)CC2)cn1` [Example 33, (2R,3R)-2-(2,4-difluorophenyl)-3-(4-(6-(isopropyloxy)pyridin-3-yl)piperazin-1-yl)-1-(1H-1,2,4-triazol-1-yl)butan-2-ol], the MIC80 in experiment [1] was found to be 0.125 µg/mL (≈ 0.265 µM); in experiment [2], 4 µg/mL (≈ 8.46 µM); in experiment [3], 2 µg/mL (≈ 4.23 µM); in [4], 4 µg/mL (≈ 8.46 µM); in experiment [5] it was 0.125 µg/mL (≈ 0.265 µM); in experiment [6] it was 64 µg/mL (≈ 135 µM). Further, the MIC80 in experiment [7] was 2 µg/mL (≈ 4.23 µM); in experiment [8], 64 µg/mL (≈ 135 µM); in [9] it was > 128 µg/mL; in experiment [10], 0.125 µg/mL (≈ 0.265 µM).
